In US20240358837A1, “Amorphous Photosensitizing Particles, Methods For The Preparation Thereof, And Methods For The Use Thereof” (priority 2021, published 2024):

Tests used:
blood-brain barrier = test: Photodynamic opening of the blood-brain barrier (Evans blue) in rats; type: in vivo, rat; details: low-dose PDT, 80 J/cm^2, 85 mW/cm^2
Procedure: Sprague-Dawley rats (4-5 weeks old, Envigo) received an intravenous injection of NanoVP (0.25 or 0.5 mg/kg) or 5-aminolevulinic acid (5-ALA, 20 or 125 mg/kg) at 30 min or 4 hours before PDT. PDT parameters, including photosensitizer concentration, drug-light interval, irradiance, and radiant exposure, were selected. At 30 minutes post-photosensitizer injection, rats were anesthetized with isoflurane and secured within a stereotaxic frame.
During the 30-minute drug-light interval, a craniotomy was performed. The top of the rat head was shaved, and the skin was removed. The periosteum was retracted to the edges of the skull. Using a micro drill (OmniDrill35, WPI), a circle about 4 mm in diameter was sketched into the right parietal bone. Drilling was stopped periodically, and PBS was applied to prevent heating. […]
PDT was performed by light activation of the exposed brain (NanoVP: 690 nm, 80 or 100 J/cm^2; 5-ALA: 635 nm, 60 or 80 J/cm^2; 40 or 85 mW/cm^2; ML6600, Modulight). At 90 minutes post-PDT, rats received an intravenous injection of Evans blue dye (2%, 4 mL/kg) to determine the blood-brain barrier integrity using imaging and extraction methods In particular, Evans blue was quantified. […] Samples were centrifuged to pellet the tissue, and the optical density of Evans blue within the supernatant at 610 nm was measured on a multi-mode microplate reader. […]

[1] = non-tumor-bearing animals, 125 mg/kg 5-ALA and 54 J, within 5 days of treatment; cited from earlier work
U87 cells = test: PDT cell viability (MTT assay) in U87 cells; type: cell-based, human; details: MTT 24 hours after PDT, 0-5 J/cm^2, 10 mW/cm^2
Procedure: Cells were cultured overnight in a 35-mm Petri dish or 96-well black wall plates (1-3.3×10^4 cells/cm^2) and then incubated with photosensitizers (i.e., NanoVP, free-form VP, or Liposomal VP; 0.25 μM) for 24 hours. Subsequently, cells were washed twice with PBS and incubated with a photosensitizer free complete medium. Photosensitizer uptake in cells was determined using extraction methods followed by VP fluorescence measurements (Excitation/Emission: 435/700±10 nm, Synergy Neo2, BioTek) or visualized using fluorescence imaging (Lionheart, BioTek) as described previously. PDT was performed by exposing the cells to 690 nm light (0-10 J/cm^2, […], bottom illumination; ML6600, Modulight).
(§1) At 24 hours after PDT, cell viability was determined using MTT [3-(4,5-dimethylthiazol-2-yl)-2,5-diphenyltetrazolium bromide] assay or neutral red assay (Abcam) following the vendor's protocol. For dark toxicity evaluation, cells were incubated with media containing photosensitizers (0-40 μM) for 72 hours, followed by the MTT assay. The photosensitizer efflux by ATP binding cassette (ABC) transporters was studied in MCF-7 and its multi-drug resistant sublines (MCF-7 TX400 and MCF-7 MX100) by adapting the protocols described herein.

caspase 3 in U87 cells = test: Total and cleaved caspase 3 immunoblotting after PDT; type: cell-based, human; details: one-hour post light activation
Procedure: Expressions of total and cleaved caspase 3 were examined by immunoblotting techniques. U87 cells were plated in a 35-mm Petri dish (Falcon) at a density of 2.2×10^4 cells/cm^2. Cells were incubated with 0.25 μM of NanoVP, free-form VP, or Liposomal VP for 24 hours. Cells were washed twice with PBS and irradiated with 690-nm light (10 J/cm^2, 50 mW/cm^2) in a fresh culture medium. At 1 hour after PDT, cell lysates were collected in radioimmunoprecipitation assay (RIPA) buffer supplemented with a 1% protease inhibitor. Protein lysates (22 μg) were separated on a 4-12% precast Bis-Tris gel (NuPAGE) and transferred onto a nitrocellulose membrane. After blocking with Odyssey blocking buffer (Li-COR) for 1 hour, blots were incubated with primary antibody against beta-actin (#3700, cell signaling), caspase 3 (#9662, Cell Signaling,), or cleaved caspase 3 (#9661, Cell Signaling) overnight at 4° C. Blots were washed with 1X Tris-buffered Saline, 0.1% Tween® 20 Detergent (TBST) buffer followed by incubation with IRDye 680RD goat anti-mouse secondary antibody (926-68070, Li-COR) or IRDye 800CW goat anti-rabbit secondary antibody (926-32211, Li-COR) for 1 hour at room temperature based on the supplier's advice. Visualization of protein bands was developed using the LiCor ODYSSEY CLx (Li-COR). β-actin serviced as a loading control. Band intensity was determined using LiCOR ODYSSEY CLx software. PDT-treated samples were normalized to a no-treatment control.

U87 cancer cells = test: Lysosomal damage (neutral red uptake assay) after PDT; type: cell-based, human; details: 690 nm, 1 J/cm^2, 50 mW/cm^2; 0.25 μM
Procedure: as §1

[2] = Fluorescence self-quenching (fluorescence in DMSO divided by fluorescence in PBS); type: physicochemical; details: 0.625-5 μM
Procedure: The stability of NanoVP particles in PBS at 4° C. was determined by monitoring their hydrodynamic size and polydispersity index using a particle sizer analyzer for up to one year. NanoVP singlet oxygen (^1O2) generation, self-quenching, and drug release were studied in 96-well plates as described previously. NanoVP and singlet oxygen sensor green (SOSG) at 5 μM were mixed and irradiated with 690 nm light (10 J/cm^2, 10 mW/cm^2; ML6600, Modulight). A multi-mode microplate reader (Synergy Neo2, BioTek) acquired fluorescence signals of VP (Excitation/Emission: 435/650-750 nm) or SOSG (Excitation/Emission: 504/525 nm) before and after light irradiation. Self-quenching (FDSMO/FO) is defined as the fluorescence after disruption of the NanoVP using DMSO (FDSMO) divided by the fluorescence of the NanoVP in PBS (FO). Photosensitizer release from NanoVP (de-quenching) was studied by monitoring the gain in VP fluorescence signal in PBS/DMSO buffer (0-100% v/v) at room temperature or in Eagle's Minimum Essential Medium (EMEM, Cellgro) with 0-10% v/v fetal bovine serum (FBS, Gibco) at 37° C.
Fluorescence photoactivity was defined as the maximal fluorescence intensity (FL) of NC-VP and L-VP in PBS divided by the maximal fluorescence intensity (FL) of NC-VP and L-VP in DMSO. The absorbance spectrums of the constructs over the visible spectrum were determined in PBS and DMSO. […]

| Compound | depth at which extravasated Evan Blue is visible in rat brain (blood-brain barrier) | mortality [1] [%] | half maximal inhibition concentration (IC50) of PDT (U87 cells) [μM×J/cm^2] | cleaved-to-total caspase-3 ratio (caspase 3 in U87 cells) | reduction of total (pro) caspase-3 expression (caspase 3 in U87 cells) [%] | increase in cleaved caspase-3 formation (caspase 3 in U87 cells; 10 J/cm^2, 50 mW/cm^2) [fold] | lysosomal integrity (U87 cancer cells) | fluorescence self-quenching [2] |
| --- | --- | --- | --- | --- | --- | --- | --- | --- |
| NCC(=O)CCC(=O)O [5-ALA, 5-aminolevulinic acid] | up to 1 mm | 50 |  |  |  |  |  |  |
| verteporfin [free-form VP] |  |  | 0.20 | ~4.4 | ~50 | ~2.4 | does not affect lysosomal integrity | up to 78 fold |
